Data: PubChem BioAssay (NCI)
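All cell lines were grown in 96-well plates and treated with compound for 48 hours. GI50 marks 50% less growth. At the TGI there is no net growth.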

Legend:
Assay in all cases: growth of human tumour cells (NCI), 48 h
SF-295 CNS = test system: SF-295 CNS
HOP-62 NSCLC = test system: HOP-62 NSCLC
MDA-MB-231 breast = test system: MDA-MB-231 breast
UO-31 renal = test system: UO-31 renal
SNB-75 CNS = test system: SNB-75 CNS
MDA-MB-435 = test system: MDA-MB-435
NCI-H23 lung = test system: NCI-H23 lung
UACC-62 melanoma = test system: UACC-62 melanoma
NCI-H460 lung = test system: NCI-H460 lung
NCI-H226 lung = test system: NCI-H226 lung

Row | Compound | TGI (SF-295 CNS) [µM] | TGI (HOP-62 NSCLC) [µM] | TGI (MDA-MB-231 breast) [µM] | TGI (UO-31 renal) [µM] | TGI (SNB-75 CNS) [µM] | TGI (MDA-MB-435) [µM] | TGI (NCI-H23 lung) [µM] | TGI (UACC-62 melanoma) [µM] | TGI (NCI-H460 lung) [µM] | TGI (NCI-H226 lung) [µM] | GI50 (NCI-H226 lung) [µM]
1 | COC(c1ccsc1)C(C#N)(C#N)N=Cc1ccsc1 (configuration not stated) | 34.9 | 34.8 | 21.3 | 26.2 | 29.9 | 29.6 | 26.2 | 28.7 | 45.4 | 54.9 | 
2 | CCOC(=O)C(=[N+]=[N-])C(=O)C[N+]12CCN(CC1)CC2 | > 100 | > 100 | > 100 | > 100 | > 100 | > 100 | > 100 | > 100 | > 100 | > 100 | 
3 | CCNc1nc(N)c(C(=O)c2ccc(Cl)cc2)s1 |  | > 100 | > 100 | 40.2 |  | > 100 | > 100 | > 100 | > 100 | 70.6 | 
4 | O=[N+]([O-])C(/C(Cl)=C(/Cl)N1CCOCC1)=C1\NCCO1 | > 100 | > 100 | > 100 | > 100 | > 100 | > 100 | > 100 | > 100 | > 100 | > 100 | 
5 | CC(C)(C)c1cc(C(O)(C(=O)O)C(=O)O)cc(C(C)(C)C)c1O | > 100 | > 100 | > 100 | > 100 | > 100 | > 100 | > 100 | > 100 |  | > 100 | 
6 | CSc1nc2ccccc2c(=O)n1/N=C1\C(=O)N(CN2CCOCC2)c2ccc(Cl)cc21 | > 100 | > 100 | > 100 | > 100 | > 100 | > 100 | > 100 | 61.3 | 43.4 | > 100 | 
7 | O=C(Nc1ccccc1)c1cc2c(cc1Cl)Sc1nccn1S2(=O)=O | > 100 | > 59.8 | > 81.2 | > 100 | 63.7 | 42.2 | 53.8 | 38.4 | > 60.6 | > 100 | 28.6
8 | CCOC(=O)c1c(SC(=O)c2cc(OC)c(OC)c(OC)c2)n(-c2ccccc2)c(=S)n(-c2ccccc2)c1=O | > 100 | > 100 | > 100 |  | > 100 | > 100 | > 100 | > 100 | > 100 | > 100 | 
9 | CN(C)CCCn1c(Cc2ccccc2)nc2cc(C(F)(F)F)ccc21 | 33.5 | > 100 | 73.3 | 5.32 | > 100 | 32.4 | 83.2 | 34.4 | 43.2 | > 100 | 
10 | Cc1cc(S(=O)(=O)Nc2nc3ccsc3c(=O)n2N)c(S)cc1Cl | > 100 | > 100 | > 100 |  | > 100 | > 100 | > 100 | > 100 | > 100 | 88 | 
11 | COC(=O)C1=C(C)N2CCCOC2(C)C(C(=O)OC)C1c1cccc(Cl)c1 (configuration not stated) | 88.9 | 48.7 |  | 71.2 | 42.3 |  | > 100 | 36.5 | 61.3 | 59.6 | 
12 | CN(Cc1c2ccccc2cc2ccccc12)S(=O)(=O)c1ccc(-c2c3nc(c(-c4ccc(S(=O)(=O)N(C)Cc5c6ccccc6cc6ccccc56)cc4)c4ccc([nH]4)c(-c4ccc(S(=O)(=O)N(C)Cc5c6ccccc6cc6ccccc56)cc4)c4nc(c(-c5ccc(S(=O)(=O)N(C)Cc6c7ccccc7cc7ccccc67)cc5)c5ccc2[nH]5)C=C4)C=C3)cc1 | > 100 | 84.6 | > 100 | > 100 | 56.8 | > 100 | > 100 | > 100 | > 100 |  | 
13 | CCSc1ncnc2c(C3OC(CO)C(O)C3O)nsc12 (configuration not stated) | > 100 | > 100 | > 100 |  | > 100 | > 100 |  |  |  | > 100 | 
14 | Cc1ccc(S(=O)(=O)NC(=O)NC(Cc2c[nH]c3ccccc23)C(=O)O)cc1 (configuration not stated) | > 100 | > 100 | > 100 | > 100 | > 100 |  | > 100 |  | > 100 |  | 
15 | Cc1cc2c(cc1-c1cc3c(cc1C)C(C(C)C)=C(O)C(=O)/C3=C\Nc1nc(-c3ccccc3)cs1)/C(=C/Nc1nc(-c3ccccc3)cs1)C(=O)C(O)=C2C(C)C | 40.9 | 31.7 | 28.5 |  | > 100 | 30.6 | 28.8 | 35.7 | 46 | 58.4 | 
16 | CCOC(=O)C1=CN=C2C(=O)N(c3ccccc3)N(C)C2(C)C1=N (configuration not stated) | > 100 |  | > 100 | > 100 | > 100 | > 100 | > 100 | > 100 | > 100 | > 100 | 
17 | CN(C(=O)C12C3C4(C(=O)O)C1(C(=O)N(C)C(C)(C)C)C1C2(C(=O)O)C3(C(=O)N(C)C(C)(C)C)C14C(=O)N(C)C(C)(C)C)C(C)(C)C (configuration not stated) | > 100 | > 100 | > 100 | > 100 |  | > 100 | > 100 | > 100 | > 100 |  | 
18 | CC1CN=C(Nc2cccc(C(F)(F)F)c2)S1 (configuration not stated) |  | > 100 | > 100 | 78.6 | > 100 | > 100 | > 100 | > 100 | > 100 | > 100 | 
19 | Cc1ccccc1N=C(N)NC#N |  | > 100 | > 100 | > 100 | > 100 | > 100 | > 100 | > 100 | > 100 |  | 
20 | CC(=O)Nc1ccc(S(=O)(=O)Nc2nnc(S(N)(=O)=O)s2)cc1 | > 100 |  | > 100 | > 100 | > 100 | > 100 | > 100 | > 100 | > 100 | > 100 | 
21 | C=Nc1ccc([N+](=O)[O-])cc1 | > 100 |  |  | > 100 | > 100 |  | > 100 | > 100 | > 100 | > 100 | 
22 | C=CCOc1ccc(C2c3c([nH][nH]c3=O)CC(O)(OCC)C2C(=O)OCC)cc1OC (configuration not stated) | > 100 | > 100 | > 100 | > 100 | > 100 | > 100 | > 100 |  | > 100 |  | 
23 | Oc1nc(N/N=C/c2c[nH]c3ccccc23)[nH]c1/C=C1\C=Nc2ccccc21 | 40.9 | 80.9 | 43.2 |  | 78 | 62.4 | 38.5 | 37.7 | > 100 | 34.4 | 
